The values below come from patent publication US20250073206A1, “SOLID FORMS OF […] […] USES THEREOF” (Sensorium Therapeutics, Inc., priority 2021, published 2025).

The nature of series [1]: Approximate solubility by visual observation at 25° C. The format is physicochemical. The note with it: thermodynamic from solid. The protocol: About 5 mg of batch 1 was weighed into a 2 mL glass vial and aliquots of 20 μL of each solvent were added to get a clear solution. Max. volume of each solvent added was 1 mL.
Series [2] concerns the target sodium-dependent serotonin transporter (SERT) (Homo sapiens, UniProt P31645). As to conditions: naturally occurring, from Sceletium tortuosum; cited from earlier work.

Values after ≈ are worked out from the molar mass of the structure shown.

Chain of sodium-dependent serotonin transporter (SERT) (P31645 whole entry, species assumed): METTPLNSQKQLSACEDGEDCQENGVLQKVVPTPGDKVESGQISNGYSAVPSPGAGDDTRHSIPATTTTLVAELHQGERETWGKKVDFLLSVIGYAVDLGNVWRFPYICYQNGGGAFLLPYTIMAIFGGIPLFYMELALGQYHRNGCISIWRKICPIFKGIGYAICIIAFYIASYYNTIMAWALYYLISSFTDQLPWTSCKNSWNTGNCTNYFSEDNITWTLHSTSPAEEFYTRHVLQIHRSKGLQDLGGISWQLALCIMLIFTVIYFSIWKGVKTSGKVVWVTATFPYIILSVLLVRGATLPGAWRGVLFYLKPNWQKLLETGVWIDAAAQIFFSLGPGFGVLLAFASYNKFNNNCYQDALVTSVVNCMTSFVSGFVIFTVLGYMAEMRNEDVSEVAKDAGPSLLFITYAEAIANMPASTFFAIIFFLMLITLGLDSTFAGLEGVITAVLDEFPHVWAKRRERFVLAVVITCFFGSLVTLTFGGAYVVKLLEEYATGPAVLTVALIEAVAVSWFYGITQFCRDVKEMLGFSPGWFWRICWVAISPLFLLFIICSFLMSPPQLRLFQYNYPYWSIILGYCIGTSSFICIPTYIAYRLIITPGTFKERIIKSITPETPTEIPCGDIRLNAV

In the case of `COc1ccc([C@@]23CCC(=O)C[C@@H]2N(C)CC3)cc1OC` [(−) mesembrine, 3a-(3,4-dimethoxyphenyl)-octahydro-1-methyl-6H-indol-6-one], the solubility in series [1] (organic solvent or mixture, Acetone) lay in the range of 125 to 250 mg/mL (≈ 432 to 864 mM); in series [1] (organic solvent or mixture, Acetonitrile), 125 to 250 mg/mL (≈ 432 to 864 mM); in series [1] (organic solvent or mixture, Dichloromethane), 125 to 250 mg/mL (≈ 432 to 864 mM); in series [1] (organic solvent or mixture, Ethanol), 125 to 250 mg/mL (≈ 432 to 864 mM); in series [1] (organic solvent or mixture, Ethyl acetate), 125 to 250 mg/mL (≈ 432 to 864 mM); in series [1] (organic solvent or mixture, Methanol) it was 125 to 250 mg/mL (≈ 432 to 864 mM). The solubility in series [1] (organic solvent or mixture, Tetrahydrofuran) was in the range of 125 to 250 mg/mL (≈ 432 to 864 mM); in series [1] (organic solvent or mixture, Toluene) it was 7 to 10 mg/mL (≈ 24.2 to 34.6 mM); in series [1] (organic solvent or mixture, t-Butyl methyl ether), 125 to 250 mg/mL (≈ 432 to 864 mM); in series [1] (Water), 125 to 250 mg/mL (≈ 432 to 864 mM). Besides, the “serotonin (5-HT) uptake inhibitory activity” value in series [2] was “serotonin (5-HT) uptake inhibitory activity”.
